Holding throughout (type): cell-based, human
The test system of test [1] is MIA PaCa-2 pancreatic cancer cells. Kind of test: Cell Glo luminescence cell growth assay, MIA PaCa-2. The following applies: NS = not statistically significant; for inhibition at 50 µM: Homo sapiens, MIA PaCa-2, 24 h, read-out: Effectiveness to suppress MIA PaCa-2 cell growth (cell growth inhibition); for Effectiveness to suppress MIA PaCa-2 cell growth (cell growth inhibition): 50 uM, 24 h. An excerpt: The CellTiter-Glo® Luminescent Cell Viability Assay (Promega Corporation; Madison, WI) is a homogeneous method of determining the number of viable cells in culture based on quantitation of the ATP present, an indicator of metabolically active cells. The homogeneous assay procedure involves adding the single reagent (CellTiter-Glo® Reagent) directly to cells cultured in serum-supplemented medium. The homogeneous “add-mix-measure” format results in cell lysis and generation of a luminescent signal proportional to the amount of ATP present. The amount of ATP is directly proportional to the number of cells present in culture.
Cancer cells (3,000 cells/well) were harvested in a 96-well plate. Then, the cancer cells were treated with GS compounds and incubated for 24 hours. The MT Cell Viability Substrate, NanoLuc® Enzyme and cell culture medium was equilibrated to 37° C. The 2× RealTime-Glo™ reagent was prepared by diluting the MT Cell Viability Substrate and NanoLuc® Enzyme in 37° C. cell culture medium to a 2× concentration for each reagent. For example, 1 mL of 2× RealTime-Glo™ reagent was prepared by adding 2 μL of MT Cell Viability Substrate, 1,000×, and 2 μL of NanoLuc® Enzyme, 1,000×, to 996 μL of cell culture medium to form the 2× RealTime-Glo™ reagent. Then, an equal volume of 2× RealTime-Glo™ reagent was added to the cancer cells. The cells were kept for ˜20 minutes in the cell culture incubator and then luminescence was measured by using a plate-reading luminometer.
MIA PaCa-2 is a human pancreatic ductal adenocarcinoma cell line derived from the carcinoma of a person.
(§1) The effects of exemplary compounds on cancer cell lines and one non-tumorigenic cell line (control) were investigated using a high throughput screening assay. More specifically, the effects of the GS compounds on cell growth was evaluated by the XTT assay for cell lines HepG2, HeLa, MCF7 ER+, MDA-MB-231, and MKN-45, and by the Cell Glo luminescence assay for cell lines MIA PaCa-2, HCT-116, MCF-10A, and PANC-1.

Test [2] deals with MKN-45 gastric cancer cells. Briefly: XTT cell growth assay, MKN-45. The following applies: NS = not statistically significant; for inhibition at 50 µM: Homo sapiens, MKN-45, 24 h, read-out: Effectiveness to suppress MKN-45 cell growth (cell growth inhibition).
Text: (§2) The XTT assay is used to measure cellular metabolic activity as an indicator of cell viability, proliferation and cytotoxicity. This non-radioactive, colorimetric assay system was first described by Scudiero, et al. in 1988 (Paull, Kenneth D. et al., J Heterocycl Chem, 1988, 25: 911-914; Scudiero, Dominic A. et al., Cancer Res, 1988, 48: 4827-4833) and improved in subsequent years by several other investigators (Weislow, Owen S. et al., J Natl Cancer Inst, 1989, 81(8): 577-586; Roehm, N. W. et al., J Immunol Methods, 1991, 142: 257-265).
(§3) The XTT assay is based on the reduction of a yellow tetrazolium salt (sodium 3′-[1-(phenylaminocarbonyl)-3,4-tetrazolium]-bis (4-methoxy6-nitro) benzene sulfonic acid hydrate or XTT) to an orange formazan dye by metabolically active cells (FIG. 8). The formazan dye formed is soluble in aqueous solutions and is directly quantified using a scanning multiwell spectrophotometer (ELISA reader). An increase in number of living cells results in an increase in the overall activity of mitochondrial dehydrogenases in the sample. This increase directly correlates to the amount of orange formazan formed, as monitored by the absorbance. Reduced number of living cells leads to reduced metabolism of quaternary salt and therefore reduced absorption.
(§4) Cell viability was assessed using the XTT assay kit (Roche, Mannheim, Germany) as described previously (Kouka, Paraskevi et al., Oxid Med Cell Longev. 2019, Article ID 1870965). Briefly, cancer cells per well were cultured in a 96-well plate in Dulbecco's modified Eagle's medium (DMEM). Following a 24 h incubation, 5, 10 and 50 μM of the tested GS compound was diluted in a serum-free DMEM and administered for 24 h. Subsequently, 50 μL of the XTT reagent (50:1) was added to each well. After 4 h of incubation, the absorbance was monitored at 450 nm and also at 630 nm as a reference wavelength in a BioTek ELx800 microplate reader (BioTek Instruments Inc., Winooski, VT, USA). As a negative control, samples containing serum-free DMEM only were used.
MKN-45 is a human gastric adenocarcinoma, established from the poorly differentiated adenocarcinoma of the stomach (medullary type) of a person.
as §1

Test [3] concerns HCT-116 colon cancer cells. Kind of test: Cell Glo luminescence cell growth assay, HCT-116. The settings on record: NS = not statistically significant; for inhibition at 1 µM: Homo sapiens, HCT-116, 24 h, read-out: Effectiveness to suppress HCT-116 cell growth (cell growth inhibition); for Effectiveness to suppress HCT-116 cell growth (cell growth inhibition): 1 uM, 24 h.
For test [4], the system named is HepG2 liver cancer cells. Briefly: XTT cell growth assay, HepG2. The settings on record: NS = not statistically significant; for inhibition at 50 µM: Homo sapiens, HepG2, 24 h, read-out: Effectiveness to suppress HepG2 cell growth (cell growth inhibition).
Text: as §2, §3, §4
Hep G2 (or HepG2) is a human liver cancer cell line. Hep G2 is an immortal cell line which was derived from the liver tissue of an adolescent with a well-differentiated hepatocellular carcinoma. Hep G2 cells are a suitable in vitro model system for the study of polarized human hepatocytes.
as §1

Turning to `C/C=C(/C=O)[C@@H](CC=O)CC(=O)OCCc1ccc(O)cc1` [GS19, (3S,4E)-4-formyl-3-(2-oxoethyl)-4-hexenoic acid 2-(4-hydroxyphenyl)ethyl ester, reference compound], the inhibition at 50 µM in test [1] came out at 30%; in test [2] it was 44.4%. The inhibition at 1 µM in test [3] stood at 21.6%.
As to `C/C=C(/C=O)[C@@H](CC=O)CC(=O)OCCOc1ccccc1` [GS24, (3S,4E)-4-formyl-3-(2-oxoethyl)-4-hexenoic acid 2-phenoxyethyl ester], the inhibition at 50 µM was 28% in test [1], 57.9% in test [4] and 35.4% in test [2].
Regarding `C/C=C(/C=O)[C@@H](CC=O)CC(=O)OCCCCCCCCCCCCCCCC` [GS26, (3S,4E)-4-formyl-3-(2-oxoethyl)-4-hexenoic acid hexadecyl ester], in test [1], the “Effectiveness to suppress MIA PaCa-2 cell growth (cell growth inhibition)” value is given as “best efficacy” and the inhibition at 50 µM is 70%. Further, the inhibition at 50 µM in test [4] worked out at 50%. Also, in test [3], the “Effectiveness to suppress HCT-116 cell growth (cell growth inhibition)” value was “suppressive activity” and the inhibition at 1 µM came to 36.3%.
For the compound `C/C=C(/C=O)[C@@H](CC=O)CC(=O)SCCc1ccccc1` [GS27, S-phenethyl (3S,4E)-4-formyl-3-(2-oxoethyl)hex-4-enethioate], in test [1], the “Effectiveness to suppress MIA PaCa-2 cell growth (cell growth inhibition)” value was “best efficacy” and the inhibition at 50 µM was found to be 91%. Also, in test [4], the inhibition at 50 µM came to 40.9%. In test [3], the “Effectiveness to suppress HCT-116 cell growth (cell growth inhibition)” value is reported as “suppressive activity” and the inhibition at 1 µM turned out to be 56.5%.
For `C/C=C(/C=O)[C@@H](CC=O)CC(=O)OCCCSC` [GS28, (3S,4E)-4-formyl-3-(2-oxoethyl)-4-hexenoic acid 3-(methylthio)propyl ester], the “Effectiveness to suppress MIA PaCa-2 cell growth (cell growth inhibition)” value in test [1] is “best efficacy”. Further, the inhibition at 50 µM in test [1] came out at 79%; in test [4] it was 69.7%; in test [2] it was 95%. Also, the “Effectiveness to suppress HepG2 cell growth (cell growth inhibition)” value in test [4] (50 uM, 24 h) is given as “best efficacy”. The “Effectiveness to suppress MKN-45 cell growth (cell growth inhibition)” value in test [2] (50 uM, 24 h) was “highly effective”. In test [3], the “Effectiveness to suppress HCT-116 cell growth (cell growth inhibition)” value is given as “suppressive activity”. Further, in test [3], the inhibition at 1 µM is 34.4%.
